Experimental data reported in US20020137929A1, “1 - (3-heterocyclylphenyl) isothiourea, -isourea, -guanidine and -amidine herbicidal agents” (Intellectual Property Department, BASF Aktiengesellschaft, priority 1998, published 2002).

Columns and labels:
SETVI (Foxtail, Green) [1] = assay: Postemergence herbicidal evaluation; format: in vivo, Setaria viridis; conditions: postemergence
Summary of the method: (§1)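 Compound is applied as a foliar spray to seedlings about two weeks old, formulated in equal parts acetone and water with 0.5% TWEEN 20 and delivered at 40 psi to give about 0.0156–0.500 kg per hectare. Injury is rated visually 0–9 after four to five weeks.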

ORYSAT (Rice, Tebonnet) = assay: Postemergence herbicidal evaluation; format: in vivo, Oryza sativa, (L.) Tebonnet; conditions: postemergence
Summary of the method: as §1

ZEAMX (Corn, Field) [2] = assay: Postemergence herbicidal evaluation; format: in vivo, Zea mays; conditions: postemergence
Summary of the method: as §1

ECHCG (Barnyardgrass) = assay: Preemergence herbicidal evaluation; format: in vivo, Echinochloa crus-galli; conditions: preemergence, rated 4-5 weeks after treatment, 0-9 scale
Summary of the method: (§2)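 Preemergence soil application of compound, sprayed in aqueous acetone at rates equivalent to about 0.0156 to 0.500 kg per hectare onto freshly sown cups. Plant response was judged by eye on a 0-9 scale four to five weeks later.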

SETVI (Foxtail, Green) [3] = assay: Preemergence herbicidal evaluation; format: in vivo, Setaria viridis; conditions: preemergence, rated 4-5 weeks after treatment, 0-9 scale
Summary of the method: as §2

[4] = test system: TRZAWR (Wheat, Winter, cv Riband); assay: Preemergence herbicidal evaluation; format: in vivo, Triticum aestivum; conditions: preemergence, rated 4-5 weeks after treatment, 0-9 scale
Summary of the method: as §2

ZEAMX (Corn, Field) [5] = assay: Preemergence herbicidal evaluation; format: in vivo, Zea mays; conditions: preemergence, rated 4-5 weeks after treatment, 0-9 scale
Summary of the method: as §2

[6] = test system: ECHORC (Watergrass (Calif.)); assay: Preemergence weed control under flooded paddy conditions; format: in vivo, Echinochloa oryzoides; conditions: rated 3-4 weeks after treatment
Summary of the method: (§3)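 Flooded-pot preemergence screen with silt loam and seeds in the upper 0.5 cm. Dose about 0.0313 to 0.500 kg/ha, delivered into flood water; visual 0-9 score after 3 to 4 weeks.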

CYPIR (Rice Flatsedge) [7] = assay: as above; format: in vivo, Cyperus iria; conditions: rated 3-4 weeks after treatment
Summary of the method: as §3

CYPSE (Flatsedge) [8] = assay: as above; format: in vivo, Cyperus serotinus; conditions: rated 3-4 weeks after treatment
Summary of the method: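 Silt loam, seeds in top 0.5 cm; flood held 1.5-3 cm; test cpd as acetone/water 50/50 into flood water, ~0.0313-0.500 kg/ha a.i.; greenhouse 3-4 wk; visual 0-9 score vs control.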

[9] = test system: ECHORC (Watergrass (Calif.)); assay: Postemergence weed control under flooded paddy conditions; format: in vivo, Echinochloa oryzoides; conditions: postemergence weeds, rated 3 to 4 weeks after treatment
Summary of the method: (§4)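 Weeds 3 to 5 cm tall and rice seedlings at the 1.5 to 2.5 leaf stage were flooded, with water held 1.5 to 3 cm above the soil. Compounds in 50/50 v/v aqueous/acetone went into the flood water at about 0.0313 to 0.500 kg/ha. Visual 0-9 ratings versus control were made 3 to 4 weeks later.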

CYPIR (Rice Flatsedge) [10] = assay: as above; format: in vivo, Cyperus iria; conditions: postemergence weeds, rated 3 to 4 weeks after treatment
Summary of the method: as §4

CYPSE (Flatsedge) [11] = assay: as above; format: in vivo, Cyperus serotinus; conditions: postemergence weeds, rated 3 to 4 weeks after treatment
Description: Results of herbicide evaluation are expressed on a rating scale (0-9). The scale is based upon a visual observation of plant stand, vigor, malformation, size, chlorosis and overall plant appearance as compared with a control.
Plastic containers containing weeds which are 3 to 5 cm tall and rice seedlings at the 1.5 to 2.5 leaf stage are flooded with water. The water is maintained at 1.5 to 3 cm above the soil surface for the duration of the experiment. Test compounds are applied as aqueous/ acetone mixtures 50/50 v/v directly into the flood water to provide the equivalent of about 0.0313 to 0.500 kg/ha of active ingredient. The treated containers are placed on greenhouse benches and cared for in accordance with conventional greenhouse procedures. Three to four weeks after treatment, the test is terminated and each container is examined and herbicidal effect rated according to the rating system provided in Example 37. The compounds evaluated are reported by compound number given in Example 37.

Structure (SMILES): CCOC(=O)CN1C(=O)C(CC(=O)NO)S/C1=N/c1cc(-n2c(=O)cc(C(F)(F)F)n(C)c2=O)c(F)cc1Cl (stereo not drawn) [Compound 98, Ethyl 2-{{2-chloro-5-[3,6-dihydro-3-methyl-2,6-dioxo-4-(trifluoromethyl)-1(2H)-pyrimidinyl]-4-fluorophenyl}imino}-5-[(hydroxycarbamoyl)methyl]-4-oxo-3-thiazolidineacetate]
- SETVI herbicidal rating (SETVI (Foxtail, Green) [1]; rate 0.0156 kg/ha): 1.0
- SETVI herbicidal rating (SETVI (Foxtail, Green) [1]; rate 0.0313 kg/ha): 0.0
- SETVI herbicidal rating (SETVI (Foxtail, Green) [1]; rate 0.0625 kg/ha): 1.0
- SETVI herbicidal rating (SETVI (Foxtail, Green) [1]; rate 0.1250 kg/ha): 2.0
- ORYSAT herbicidal rating (ORYSAT (Rice, Tebonnet); rate 0.0156 kg/ha): 1.5
- ORYSAT herbicidal rating (ORYSAT (Rice, Tebonnet); rate 0.0313 kg/ha): 2.5
- ORYSAT herbicidal rating (ORYSAT (Rice, Tebonnet); rate 0.0625 kg/ha): 2.5
- ORYSAT herbicidal rating (ORYSAT (Rice, Tebonnet); rate 0.1250 kg/ha): 2.0
- ZEAMX herbicidal rating (ZEAMX (Corn, Field) [2]; rate 0.0156 kg/ha): 3.0
- ZEAMX herbicidal rating (ZEAMX (Corn, Field) [2]; rate 0.0313 kg/ha): 4.0
- ZEAMX herbicidal rating (ZEAMX (Corn, Field) [2]; rate 0.0625 kg/ha): 4.0
- ZEAMX herbicidal rating (ZEAMX (Corn, Field) [2]; rate 0.1250 kg/ha): 5.0
- ECHCG rating (ECHCG (Barnyardgrass); 0.0156 kg/ha): 0.0
- ECHCG rating (ECHCG (Barnyardgrass); 0.0313 kg/ha): 0.0
- ECHCG rating (ECHCG (Barnyardgrass); 0.0625 kg/ha): 0.0
- ECHCG rating (ECHCG (Barnyardgrass); 0.1250 kg/ha): 1.0
- ECHCG rating (ECHCG (Barnyardgrass); 0.2500 kg/ha): 1.0
- ECHCG rating (ECHCG (Barnyardgrass); 0.5000 kg/ha): 2.0
- SETVI rating (SETVI (Foxtail, Green) [3]; 0.0156 kg/ha): 0.0
- SETVI rating (SETVI (Foxtail, Green) [3]; 0.0313 kg/ha): 1.0
- SETVI rating (SETVI (Foxtail, Green) [3]; 0.0625 kg/ha): 0.0
- SETVI rating (SETVI (Foxtail, Green) [3]; 0.1250 kg/ha): 4.0
- SETVI rating (SETVI (Foxtail, Green) [3]; 0.2500 kg/ha): 3.0
- SETVI rating (SETVI (Foxtail, Green) [3]; 0.5000 kg/ha): 7.0
- TRZAWR rating ([4]; 0.0156 kg/ha): 0.0
- TRZAWR rating ([4]; 0.0313 kg/ha): 0.0
- TRZAWR rating ([4]; 0.0625 kg/ha): 0.0
- TRZAWR rating ([4]; 0.1250 kg/ha): 0.0
- TRZAWR rating ([4]; 0.2500 kg/ha): 1.0
- TRZAWR rating ([4]; 0.5000 kg/ha): 3.0
- ZEAMX rating (ZEAMX (Corn, Field) [5]; 0.0156 kg/ha): 0.0
- ZEAMX rating (ZEAMX (Corn, Field) [5]; 0.0313 kg/ha): 0.0
- ZEAMX rating (ZEAMX (Corn, Field) [5]; 0.0625 kg/ha): 0.0
- ZEAMX rating (ZEAMX (Corn, Field) [5]; 0.1250 kg/ha): 0.0
- ZEAMX rating (ZEAMX (Corn, Field) [5]; 0.2500 kg/ha): 4.0
- ZEAMX rating (ZEAMX (Corn, Field) [5]; 0.5000 kg/ha): 6.0
- ECHORC herbicidal effect rating ([6]; 0.0313 kg/ha): 0.0
- ECHORC herbicidal effect rating ([6]; 0.0625 kg/ha): 0.0
- ECHORC herbicidal effect rating ([6]; 0.1250 kg/ha): 1.0
- ECHORC herbicidal effect rating ([6]; 0.2500 kg/ha): 3.0
- CYPIR herbicidal effect rating (CYPIR (Rice Flatsedge) [7]; 0.0313 kg/ha): 9.0
- CYPIR herbicidal effect rating (CYPIR (Rice Flatsedge) [7]; 0.0625 kg/ha): 9.0
- CYPIR herbicidal effect rating (CYPIR (Rice Flatsedge) [7]; 0.1250 kg/ha): 9.0
- CYPIR herbicidal effect rating (CYPIR (Rice Flatsedge) [7]; 0.2500 kg/ha): 9.0
- CYPSE herbicidal effect rating (CYPSE (Flatsedge) [8]; 0.0313 kg/ha): 2.0
- CYPSE herbicidal effect rating (CYPSE (Flatsedge) [8]; 0.0625 kg/ha): 3.0
- CYPSE herbicidal effect rating (CYPSE (Flatsedge) [8]; 0.1250 kg/ha): 4.0
- CYPSE herbicidal effect rating (CYPSE (Flatsedge) [8]; 0.2500 kg/ha): 4.0
- Herbicidal rating ECHORC ([9]; Rate 0.0313 kg/ha): 0.0
- Herbicidal rating ECHORC ([9]; Rate 0.0625 kg/ha): 0.0
- Herbicidal rating ECHORC ([9]; Rate 0.1250 kg/ha): 1.0
- Herbicidal rating ECHORC ([9]; Rate 0.2500 kg/ha): 3.0
- Herbicidal rating CYPIR (CYPIR (Rice Flatsedge) [10]; Rate 0.0313 kg/ha): 9.0
- Herbicidal rating CYPIR (CYPIR (Rice Flatsedge) [10]; Rate 0.0625 kg/ha): 9.0
- Herbicidal rating CYPIR (CYPIR (Rice Flatsedge) [10]; Rate 0.1250 kg/ha): 9.0
- Herbicidal rating CYPIR (CYPIR (Rice Flatsedge) [10]; Rate 0.2500 kg/ha): 9.0
- Herbicidal rating CYPSE (CYPSE (Flatsedge) [11]; Rate 0.0313 kg/ha): 2.0
- Herbicidal rating CYPSE (CYPSE (Flatsedge) [11]; Rate 0.0625 kg/ha): 3.0
- Herbicidal rating CYPSE (CYPSE (Flatsedge) [11]; Rate 0.1250 kg/ha): 4.0
- Herbicidal rating CYPSE (CYPSE (Flatsedge) [11]; Rate 0.2500 kg/ha): 4.0
